Literature values in publication PMC11887077 (BMC Cancer, 2025).

System: NRP1
Settings: in vitro

## CLKADK [CK2]
  affinity with NRP1 compared with CK3: higher affinity
